We go through 54 molecules from ChEMBL document CHEMBL1156124, “Assessment of the putative binding conformation of a pyrazolopyridine class of inhibitors of MAPKAPK2 using computational studies” (Eur J Med Chem, 2010).

Each structure is given as a SMILES string.

Sequence of MAP kinase-activated protein kinase 2 (Homo sapiens) (P49137 whole entry, looked up): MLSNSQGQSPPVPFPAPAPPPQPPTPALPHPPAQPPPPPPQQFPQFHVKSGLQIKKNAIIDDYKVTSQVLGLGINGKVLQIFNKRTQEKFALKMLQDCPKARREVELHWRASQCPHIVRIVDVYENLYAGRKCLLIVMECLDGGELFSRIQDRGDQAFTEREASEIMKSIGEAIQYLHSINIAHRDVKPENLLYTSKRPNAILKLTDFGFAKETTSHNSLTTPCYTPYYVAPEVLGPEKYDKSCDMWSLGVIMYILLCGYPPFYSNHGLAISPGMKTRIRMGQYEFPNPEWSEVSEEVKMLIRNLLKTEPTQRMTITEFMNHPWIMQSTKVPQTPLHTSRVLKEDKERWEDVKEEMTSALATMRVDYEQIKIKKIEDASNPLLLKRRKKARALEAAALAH

The experiment addresses MAP kinase-activated protein kinase 2 (Homo sapiens) (UniProt P49137). Briefly: Inhibition of MK2.
In the case of `CCOc1ccc(Nc2c(C)c(N[C@H]3CC[C@H](N)CC3)c(C#N)c3ccnn23)cc1`, the Activity was < 0.2 µM.
`CCOc1ccc(Nc2c(C)c(NC3CCCCC3N)c(C#N)c3ccnn23)cc1` (centres undefined) had an Activity of 10 µM.
For the molecule `COCCOc1ccc(Nc2c(C)c(N[C@H]3CC[C@H](N)CC3)c(C#N)c3ccnn23)cc1`, the Activity was < 0.2 µM.
In turn, `CCOc1ccc(Nc2c(C)c(NCCC3CCCN3)c(C#N)c3ccnn23)cc1` (centres undefined) gave an Activity of 1 µM.
In turn, `Cc1c(N[C@H]2CC[C@H](N)CC2)c(C#N)c2ccnn2c1NOc1ccccc1` had an Activity of 0.2 µM.
To `CCOc1ccc(Nc2c(C)c(N[C@H]3CC[C@H](NCCc4ccccc4)CC3)c(C#N)c3ccnn23)cc1` belongs 0.2 µM.
As for `Cc1c(N[C@@H]2CCCNC2)c(C#N)c2ccnn2c1Nc1nc2ccccc2s1`, the Activity was < 0.2 µM.
As for `CCOc1ccc(Nc2c(C)c(NCC3CCCCN3)c(C#N)c3ccnn23)cc1` (centres undefined), the Activity stood at 1 µM.
`N#Cc1c(N[C@@H]2CCCNC2)cc(Nc2ccc(-c3ccccc3)cc2)n2nccc12` gave an Activity of 0.2 µM.
Next, `CCOc1ccc(Nc2c(CCO)c(N[C@@H]3CCCNC3)c(C#N)c3ccnn23)cc1`: < 0.2 µM; `CCOc1ccc(Nc2c(CC)c(N[C@@H]3CCCNC3)c(C#N)c3ccnn23)cc1`: < 0.2 µM.
Next, `NC(=O)n1ncc2ccccc21`: < 150 µM; `CCOc1ccc(Nc2c(C)c(N[C@H]3CCCNC3)c(C#N)c3ccnn23)cc1`: < 0.2 µM.
In the case of `CCOc1ccc(Nc2c(C)c(NC3CCNCC3)c(C#N)c3ccnn23)cc1`, the Activity was found to be 0.2 µM.
To `CCOc1ccc(Nc2c(C)c(N[C@@H]3CCCC[C@H]3N)c(C#N)c3ccnn23)cc1` belongs 10 µM; to `CCOc1ccc(Nc2c(-c3ccccc3)c(NC3CCCNC3)c(C#N)c3ccnn23)cc1` (centres undefined), 0.2 µM.
Turning to `CCOc1ccc(Nc2c(C)c(OCCN)nc3ccnn23)cc1`, the Activity is 10 µM.
As to `CCOc1ccc(Nc2c(C)c(NC3CCC(N)CC3)c(C#N)c3ccnn23)cc1` (centres undefined), the Activity was < 0.2 µM.
Next, `CCOc1ccc(Nc2c(C)c(NCCCCCN)c(C#N)c3ccnn23)cc1`: 0.2 µM; `CCOc1ccc(Nc2cc(N[C@@H]3CCCNC3)c(C#N)c3ccnn23)cc1`: 0.2 µM; `CCOc1ccc(Nc2c(C)c(NCC3CCCN3)c(C#N)c3ccnn23)cc1` (centres undefined): 1 µM.
For the molecule `N#Cc1c(N[C@H]2CC[C@H](N)CC2)cc(Nc2nc3ccccc3s2)n2nccc12`, the Activity amounted to 0.2 µM.
The molecule `CCOc1ccc(Nc2c(C)c(NC3CCC(NCc4ccccc4)CC3)c(C#N)c3ccnn23)cc1` (centres undefined) registered an Activity of 0.2 µM.
With `Cc1c(N[C@H]2CC[C@H](N)CC2)c(C#N)c2ccnn2c1Nc1ccc(-c2ccccc2)cc1`, the Activity is < 0.2 µM.
The molecule `CCOc1ccc(Nc2c(C)c(N[C@H]3CC[C@H](NCC4CCCCC4)CC3)c(C#N)c3ccnn23)cc1` registered an Activity of 0.2 µM.
For the molecule `CCOc1ccc(Nc2c(C(C)C)c(N[C@H]3CC[C@H](N)CC3)c(C#N)c3ccnn23)cc1`, the Activity was < 0.2 µM.
Regarding `CCOc1ccc(Nc2c(C)c(NCCN)c(C#N)c3ccnn23)cc1`, the Activity amounted to 0.2 µM.
Take `CCOc1ccc(Nc2c(C)c(N[C@H]3CC[C@H](NCc4ccccc4)CC3)c(C#N)c3ccnn23)cc1`: the Activity is 0.2 µM.
For `CCOc1ccc(Nc2c(CC)c(N[C@H]3CC[C@H](N)CC3)c(C#N)c3ccnn23)cc1`, the Activity is < 0.2 µM.
Molecule `CCOc1ccc(Nc2c(C3CC3)c(N[C@@H]3CCCNC3)c(C#N)c3ccnn23)cc1` gave an Activity of 0.2 µM.
The molecule `CCOc1ccc(Nc2c(C)c(NCCCN)c(C#N)c3ccnn23)cc1` yielded an Activity of 0.2 µM.
With `CCOc1ccc(Nc2c(C)c(NC3CNCc4ccccc43)c(C#N)c3ccnn23)cc1` (centres undefined), the Activity stood at 1 µM.
To `N#Cc1c(N[C@H]2CC[C@H](N)CC2)cc(Nc2ccccc2Cl)n2nccc12` belongs 0.2 µM.
Turning to `CCOc1ccc(Nc2c(C3CC3)c(N[C@H]3CC[C@H](N)CC3)c(C#N)c3ccnn23)cc1`, the Activity is < 0.2 µM.
As to `CCOc1ccc(Nc2c(CC(C)C)c(N[C@@H]3CCCNC3)c(C#N)c3ccnn23)cc1`, the Activity was < 0.2 µM.
As for `COCCOc1ccc(Nc2c(C)c(N[C@H]3CCNC3)c(C#N)c3ccnn23)cc1`, the Activity is 0.2 µM.
For the molecule `Cc1c(N[C@@H]2CCCNC2)c(C#N)c2ccnn2c1Nc1ccccc1`, the Activity was < 0.2 µM.
To `CCOc1ccc(Nc2c(C)c(NCC3CCNC3)c(C#N)c3ccnn23)cc1` (centres undefined) belongs 1 µM; to `c1ccn2nccc2c1`, < 0.2 µM; to `C=CCc1c(N[C@@H]2CCCNC2)c(C#N)c2ccnn2c1Nc1ccc(OCC)cc1`, < 0.2 µM.
`CCOc1ccc(Nc2c(C)c(NC3CCCC(N)C3)c(C#N)c3ccnn23)cc1` (centres undefined): the Activity worked out at 1 µM.
In turn, `CCOc1ccc(Nc2c(C)c(N[C@H]3CC[C@H](NCCCc4ccccc4)CC3)c(C#N)c3ccnn23)cc1` gave an Activity of 0.2 µM.
To `CCOc1ccc(Nc2c(C)c(NCCCNC3CCCCC3)c(C#N)c3ccnn23)cc1` belongs 1 µM; to `CCOc1ccc(Nc2c(C)c(OC3CCC(N)CC3)nc3ccnn23)cc1` (centres undefined), 0.2 µM.
On to `CCOc1ccc(Nc2c(C)c(NCCCCCCN)c(C#N)c3ccnn23)cc1`, for which the Activity worked out at 10 µM.
To `COCCOc1ccc(Nc2c(C)c(N[C@@H]3CCCNC3)c(C#N)c3ccnn23)cc1` belongs < 0.2 µM; to `CCCc1c(N[C@@H]2CCCNC2)c(C#N)c2ccnn2c1Nc1ccc(OCC)cc1`, < 0.2 µM.
To `CCOc1ccc(Nc2c(C)c(NCCC3CCCCN3)c(C#N)c3ccnn23)cc1` (centres undefined) belongs 10 µM; to `CCOc1ccc(Nc2c(C)c(N[C@H]3CC[C@H](NCC(C)C)CC3)c(C#N)c3ccnn23)cc1`, < 0.2 µM; to `Cc1c(N[C@@H]2CCCNC2)c(C#N)c2ccnn2c1NCc1nc2ccccc2s1`, < 0.2 µM.
`CCOc1ccc(Nc2c(C)c(OC3CCCNC3)nc3ccnn23)cc1` (centres undefined): the Activity is 1 µM.
Molecule `N#Cc1c(N[C@@H]2CCCNC2)cc(Nc2ccccc2Cl)n2nccc12` showed an Activity of 0.2 µM.
On to `CCOc1ccc(Nc2c(C)c(NCC3CCCNC3)c(C#N)c3ccnn23)cc1` (centres undefined), for which the Activity came to 1 µM.
For `CCOc1ccc(Nc2c(C)c(NCCC3CCCN3C)c(C#N)c3ccnn23)cc1` (centres undefined), the Activity was 10 µM.
